Usually IC90 stands for the concentration at which the effect reaches the 90% level.

The test system of one test is Acinetobacter baumannii ATCC17961. The test can be described thus: Antimicrobial susceptibility testing: 90% growth inhibitory concentration (IC90) determination. The format is cell-based. The note with it: 90% growth inhibitory concentration against Acinetobacter baumannii ATCC17961, Iso-Sensitest broth, OD 600 nm over 16 h; read-out: ATCC 17961 IC90. In outline: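 Twofold serial dilutions (e.g. 10 to 0.0195 μM final) in Iso-Sensitest broth inoculated at ~5×10^5 CFU/mL, incubated at 35±2° C. OD600 read every minute for 16 h; IC90 is the concentration inhibiting 90% of growth during logarithmic phase.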
Take `Cn1c(-c2cn(-c3ccc4c(ccn4CC(N)=O)n3)nc2C(F)(F)F)cnc1C(=O)Nc1ccc(C(=O)N2CCN(C(=O)C3CC[N+](CC(=O)O)(CC4CNC4)CC3)CC2)c(Cl)c1` (stereo not drawn) [Example 199, cis-2-[4-[4-[4-[[5-[1-[1-(2-amino-2-keto-ethyl)pyrrolo[3,2-b]pyridin-5-yl]-3-(trifluoromethyl)pyrazol-4-yl]-1-methyl-imidazole-2-carbonyl]amino]-2-chloro-benzoyl]piperazine-1-carbonyl]-1-(azetidin-3-ylmethyl)piperidin-1-ium-1-yl]acetic acid. 1:1 2,2,2-trifluoroacetate]: the IC90 was found to be 308 nM.

With “cis-2-[4-[4-[4-[[5-[1-(4-Amino-2-fluoro-phenyl)-3-(difluoromethyl) pyrazol-4-yl]-1-methyl-imidazole-2-carbonyl]amino]-2-chloro-benzoyl]piperazine-1-carbonyl]-1-(azetidin-3-ylmethyl)piperidin-1-ium-1-yl]acetic Acid;2,2,2-trifluoroacetate [Example 128]”, the IC90 was determined as 358 nM.

Staying with this test, now noted: Acinetobacter baumannii, ATCC17961, 16 h, 90% growth inhibitory concentration against Acinetobacter baumannii ATCC17961, Iso-Sensitest broth, OD 600 nm over 16 h; read-out: ATCC 17961 IC90.
With `Cn1c(-c2cn(-c3cc4cc(CO)[nH]c4cn3)nc2C(F)(F)F)cnc1C(=O)Nc1ccc(C(=O)N2CCN(C(=O)[C@H]3CC[N@+](CC(=O)O)(CC4CNC4)CC3)CC2)c(Cl)c1` [Example 191, cis-2-[1-(azetidin-3-ylmethyl)-4-[4-[2-chloro-4-[[1-methyl-5-[1-(2-methylol-1H-pyrrolo[2,3-c]pyridin-5-yl)-3-(trifluoromethyl)pyrazol-4-yl]imidazole-2-carbonyl]amino]benzoyl]piperazine-1-carbonyl]piperidin-1-ium-1-yl]acetic acid. 1:1 2,2,2-trifluoroacetic acid], the IC90 came to 315 nM.

As for `Cn1c(-c2cn(-c3cccc(N)n3)nc2C(F)(F)F)cnc1C(=O)Nc1ccc(C(=O)N2CCN(C(=O)[C@H]3CC[N@+](CC(=O)O)(CC4CNC4)CC3)CC2)c(Cl)c1` [Example 192, cis-2-[4-[4-[4-[[5-[1-(6-amino-2-pyridyl)-3-(trifluoromethyl)pyrazol-4-yl]-1-methyl-imidazole-2-carbonyl]amino]-2-chloro-benzoyl]piperazine-1-carbonyl]-1-(azetidin-3-ylmethyl)piperidin-1-ium-1-yl]acetic acid. 1:1 2,2,2-trifluoroacetate], the IC90 is 265 nM.

With `Cn1c(-c2cn(-c3ccc(N)cc3F)nc2C(F)(F)F)cnc1C(=O)Nc1ccc(C(=O)N2CCN(C(=O)C3CC[N+](C)(CC(=O)O)CC3)CC2)c(Cl)c1` (stereo not shown) [Example 193, 2-[4-[4-[4-[[5-[1-(4-amino-2-fluoro-phenyl)-3-(trifluoromethyl)pyrazol-4-yl]-1-methyl-imidazole-2-carbonyl]amino]-2-chloro-benzoyl]piperazine-1-carbonyl]-1-methyl-piperidin-1-ium-1-yl]acetic acid;iodide], the IC90 turned out to be 371 nM.

Regarding `Cn1c(-c2cn(-c3cc4[nH]cc(CCO)c4cn3)nc2C(F)(F)F)cnc1C(=O)Nc1ccc(C(=O)N2CCN(C(=O)[C@H]3CC[N@+](CC(=O)O)(CC4CNC4)CC3)CC2)c(Cl)c1` [Example 194, cis-2-[1-(azetidin-3-ylmethyl)-4-[4-[2-chloro-4-[[5-[1-[3-(2-hydroxyethyl)-1H-pyrrolo[3,2-c]pyridin-6-yl]-3-(trifluoromethyl)pyrazol-4-yl]-1-methyl-imidazole-2-carbonyl]amino]benzoyl]piperazine-1-carbonyl]piperidin-1-ium-1-yl]acetic acid. 1:1 2,2,2-trifluoroacetate], the IC90 is 168 nM.

As to `Cn1c(-c2cn(-c3ccc(N)cc3F)nc2C(F)(F)F)cnc1C(=O)Nc1ccc(C(=O)N2CCN(C(=O)CCC[N+](C)(CC(=O)[O-])CC3CNC3)CC2)c(Cl)c1` (stereo not shown) [Example 195, 2-[[4-[4-[4-[[5-[1-(4-amino-2-fluoro-phenyl)-3-(trifluoromethyl)pyrazol-4-yl]-1-methyl-imidazole-2-carbonyl]amino]-2-chloro-benzoyl]piperazin-1-yl]-4-oxo-butyl]-(azetidin-3-ylmethyl)-methyl-ammonio]acetate], the IC90 came to 330 nM.

Consider `Cn1c(-c2cn(-c3ccc(N(CCN)CCN)cn3)nc2C(F)(F)F)cnc1C(=O)Nc1ccc(C(=O)N2CCN(C(=O)[C@H]3CC[N@+](CC(=O)O)(CC4CNC4)CC3)CC2)c(Cl)c1` [Example 196, cis-2-[1-(azetidin-3-ylmethyl)-4-[4-[4-[[5-[1-[5-[bis(2-aminoethyl)amino]-2-pyridyl]-3-(trifluoromethyl)pyrazol-4-yl]-1-methyl-imidazole-2-carbonyl]amino]-2-chloro-benzoyl]piperazine-1-carbonyl]piperidin-1-ium-1-yl]acetic acid;formic acid;formate], for which the IC90 was 185 nM.

`Cn1c(-c2cn(-c3ccc4c(ccn4CC#N)n3)nc2C(F)(F)F)cnc1C(=O)Nc1ccc(C(=O)N2CCN(C(=O)[C@H]3CC[N@+](CC(=O)O)(CC4CNC4)CC3)CC2)c(Cl)c1` [Example 197, cis-2-[1-(azetidin-3-ylmethyl)-4-[4-[2-chloro-4-[[5-[1-[1-(cyanomethyl)pyrrolo[3,2-b]pyridin-5-yl]-3-(trifluoromethyl)pyrazol-4-yl]-1-methyl-imidazole-2-carbonyl]amino]benzoyl]piperazine-1-carbonyl]piperidin-1-ium-1-yl]acetic acid. 1:1 2,2,2-trifluoroacetate]: the IC90 came out at 171 nM.

On to `Cn1c(-c2cn(-c3ccc4c(ccn4CCO)n3)nc2C(F)(F)F)cnc1C(=O)Nc1ccc(C(=O)N2CCN(C(=O)[C@H]3CC[N@+](CC(=O)O)(CC4CNC4)CC3)CC2)c(Cl)c1` [Example 198, cis-2-[1-(azetidin-3-ylmethyl)-4-[4-[2-chloro-4-[[5-[1-[1-(2-hydroxyethyl)pyrrolo[3,2-b]pyridin-5-yl]-3-(trifluoromethyl)pyrazol-4-yl]-1-methyl-imidazole-2-carbonyl]amino]benzoyl]piperazine-1-carbonyl]piperidin-1-ium-1-yl]acetic acid. 1:1 2,2,2-trifluoroacetate], for which the IC90 was 370 nM.

With `Cn1c(-c2cn(-c3cc4cc[nH]c4cn3)nc2C(F)(F)F)cnc1C(=O)Nc1ccc(C(=O)N2CCN(C(=O)[C@H]3CC[N@+](CC(=O)O)(CC4CNC4)CC3)CC2)c(Cl)c1` [Example 200, cis-2-[1-(azetidin-3-ylmethyl)-4-[4-[2-chloro-4-[[1-methyl-5-[1-(1H-pyrrolo[2,3-c]pyridin-5-yl)-3-(trifluoromethyl)pyrazol-4-yl]imidazole-2-carbonyl]amino]benzoyl]piperazine-1-carbonyl]piperidin-1-ium-1-yl]acetic acid. 1:1 2,2,2-trifluoroacetate], the IC90 amounted to 400 nM.

As to `Cn1c(-c2cn(-c3ccc(NCCN)cn3)nc2C(F)(F)F)cnc1C(=O)Nc1ccc(C(=O)N2CCN(C(=O)C3CC[N+](C)(CC(=O)[O-])CC3)CC2)c(Cl)c1` (stereo not shown) [Example 201, 2-[4-[4-[4-[[5-[1-[5-(2-aminoethylamino)-2-pyridyl]-3-(trifluoromethyl)pyrazol-4-yl]-1-methyl-imidazole-2-carbonyl]amino]-2-chloro-benzoyl]piperazine-1-carbonyl]-1-methyl-piperidin-1-ium-1-yl]acetate], the IC90 worked out at 682 nM.

As to `Cn1c(-c2cn(-c3ccc(N4CC[C@H](N)C4)cn3)nc2C(F)(F)F)cnc1C(=O)Nc1ccc(C(=O)N2CCN(C(=O)[C@H]3CC[N@+](CC(=O)O)(CC4CNC4)CC3)CC2)c(Cl)c1` [Example 202, cis-2-[4-[4-[4-[[5-[1-[5-[(3S)-3-aminopyrrolidin-1-yl]-2-pyridyl]-3-(trifluoromethyl)pyrazol-4-yl]-1-methyl-imidazole-2-carbonyl]amino]-2-chloro-benzoyl]piperazine-1-carbonyl]-1-(azetidin-3-ylmethyl)piperidin-1-ium-1-yl]acetic acid;formate], the IC90 is 231 nM.

The values are drawn from patent US20250179066A1, “ZWITTERIONIC ANTIBACTERIAL COMPOUNDS” (Hoffmann-La Roche Inc., priority 2022, published 2025).
